Biological target: ATP-dependent translocase ABCB1 (Homo sapiens, UniProt P08183)
Test: Inhibition of P-gp in human MCF7/ADR cells assessed as potentiation of daunomycin-induced cytotoxicity at 50 microM incubated for 2 hrs by SRB assay
Type: cell-based
Settings: nci/adr-res; call rule not given here

Chain of ATP-dependent translocase ABCB1 (P08183 whole entry): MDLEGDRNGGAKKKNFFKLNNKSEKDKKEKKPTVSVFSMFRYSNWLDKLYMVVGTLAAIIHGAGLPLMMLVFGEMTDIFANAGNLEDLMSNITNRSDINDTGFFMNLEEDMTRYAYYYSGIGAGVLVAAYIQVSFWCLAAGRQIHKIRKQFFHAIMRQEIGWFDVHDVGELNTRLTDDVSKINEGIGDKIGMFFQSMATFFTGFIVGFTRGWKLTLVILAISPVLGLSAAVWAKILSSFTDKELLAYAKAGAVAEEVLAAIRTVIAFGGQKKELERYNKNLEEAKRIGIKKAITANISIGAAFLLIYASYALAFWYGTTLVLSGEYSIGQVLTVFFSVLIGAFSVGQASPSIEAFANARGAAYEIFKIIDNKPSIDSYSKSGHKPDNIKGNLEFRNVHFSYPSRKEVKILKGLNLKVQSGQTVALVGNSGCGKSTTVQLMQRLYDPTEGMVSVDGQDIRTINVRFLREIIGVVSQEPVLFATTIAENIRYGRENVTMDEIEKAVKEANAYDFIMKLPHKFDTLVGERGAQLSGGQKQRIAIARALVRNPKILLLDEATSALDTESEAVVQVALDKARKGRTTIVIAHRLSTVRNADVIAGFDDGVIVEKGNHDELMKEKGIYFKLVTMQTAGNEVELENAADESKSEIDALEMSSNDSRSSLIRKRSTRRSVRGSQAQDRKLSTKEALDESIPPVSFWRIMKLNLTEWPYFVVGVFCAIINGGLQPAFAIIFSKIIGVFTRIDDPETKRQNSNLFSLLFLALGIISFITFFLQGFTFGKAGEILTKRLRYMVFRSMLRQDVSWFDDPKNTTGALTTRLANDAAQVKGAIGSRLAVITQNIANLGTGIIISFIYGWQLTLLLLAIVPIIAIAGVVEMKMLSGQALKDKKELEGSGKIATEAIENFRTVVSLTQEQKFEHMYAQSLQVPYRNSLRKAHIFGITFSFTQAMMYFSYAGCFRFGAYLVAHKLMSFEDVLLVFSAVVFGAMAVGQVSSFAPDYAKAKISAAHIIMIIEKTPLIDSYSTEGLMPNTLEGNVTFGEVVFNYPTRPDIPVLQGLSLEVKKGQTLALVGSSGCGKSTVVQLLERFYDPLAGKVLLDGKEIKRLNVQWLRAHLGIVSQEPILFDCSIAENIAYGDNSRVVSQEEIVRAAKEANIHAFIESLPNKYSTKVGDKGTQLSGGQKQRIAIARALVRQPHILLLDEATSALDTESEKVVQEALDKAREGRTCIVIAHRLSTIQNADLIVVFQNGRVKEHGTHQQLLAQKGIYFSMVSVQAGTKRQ

Structure (SMILES) | inhibition (INH)
COc1ccc(/C=C/[C@@H]2CCC=C[C@H]2c2ccc(OC)c(OC)c2)cc1OC | Active
COc1ccc(/C=C\[C@H]2CCC=C[C@@H]2c2ccc(OC)c(OC)c2)cc1OC | Active
COc1ccc(/C=C/[C@H]2CCC=C[C@@H]2c2ccc(OC)c(OC)c2)cc1OC | Active

— ChEMBL document CHEMBL1817658, “Synthesis and biological activity of optically active phenylbutenoid dimers” (J Nat Prod, 2011)
